Laboratory results as given in patent publication US8278072B1, “Method for synthesis of sialylated products using reversible sialylation” (Health Research, Inc., priority 2007, dated 2012).

Molecular target: T1, ST3Gal III (Cloned rat liver) (Rattus norvegicus, UniProt Q02734)
T1 construct: purchased Calbiochem
T1 sequence (Q02734 1-374): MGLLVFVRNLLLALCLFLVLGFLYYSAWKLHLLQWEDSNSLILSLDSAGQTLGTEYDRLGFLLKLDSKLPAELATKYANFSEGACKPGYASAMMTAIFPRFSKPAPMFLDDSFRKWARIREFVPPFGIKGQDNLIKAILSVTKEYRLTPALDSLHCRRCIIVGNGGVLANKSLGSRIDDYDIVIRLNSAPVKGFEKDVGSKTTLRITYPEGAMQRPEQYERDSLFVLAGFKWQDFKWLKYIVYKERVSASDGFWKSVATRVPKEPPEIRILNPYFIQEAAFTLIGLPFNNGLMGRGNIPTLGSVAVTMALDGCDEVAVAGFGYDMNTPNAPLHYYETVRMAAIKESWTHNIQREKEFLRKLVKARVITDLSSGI
Test: Forward (direct) sialyltransferase activity, ST3Gal-III
Format: biochemical
Conditions: donor CMP-[9-3H]NeuAc, acceptor 4-O-MeGalβ1,4GlcNAcβ-O-Bn
Procedure: FIG. 5. Effect of 5′-nucleotides on direct sialyltransferase activity (panel a) and reverse sialylation (panel b). a. Varying concentrations of 5′-CDP or 5′-CMP were added to 100 mM acceptor (specified below), 0.15 mM CMP-[9-^3H]NeuAc and either ST3Gal-II (0.2 mU), ST3Gal-III (0.5 mU) or ST6Gal-I (0.2 mU) for 4 h at 37° C. Products were separated using Sep-Pak C18 method. ST3Gal-III activity was measured using acceptor 4-O-MeGalβ1,4GlcNAcβ-O-Bn in the presence of 5′-CDP (●) and 5′-CMP (◯). ST6Gal-I activity was measured using Gal β1,4GlcNAcβ-O-Bn in the presence of 5′-CDP (▴) and 5′-CMP (Δ). ST3Gal-II using D-Fucβ1,3GalNAcα-O-Bn in the presence of 5′-CDP (▪) and 5′-CMP (□). b) Reverse sialylation by ST3Gal-II was measured in reaction mixtures containing 0.2 mM [9-^3H] [3], 7 mM 5′-CMP, ST3Gal-II (2 mU), D-Fucβ1,3GalNAcα-OBn (3.0 mM) and varying doses of either 5′-CDP (▴), 5′-UMP (◯) or 2-deoxy 5′-CMP (●) for 4 hours at 37° C. Reaction product ([9-^3H]NeuAcα2,3DFucβ1,3 GalNAcα-O-Bn) was isolated using Sep-Pak C18 method. In some runs, where was absent, the amount of CMP-NeuAc produced was quantified using the Dowex-1 Formate method in the presence of varying doses of 5′-CDP (▪).
Besides pH other distinctions were also observed between forward and reverse sialylation. In this regard, citrate ions tended to inhibit forward sialylation but not reverse sialylation activity (Table V). For these studies, the effect of citrate on the forward sialylation activity of ST3Gal-I, ST3Gal-II, ST3Gal-III and ST6Gal-I was examined. Reverse sialylation activity of ST3Gal-II was also measured in terms of: i) the formation of CMP-NeuAc from 5′-CMP; and ii) the transfer of NeuAc from this newly synthesized CMP-NeuAc to another O-glycan. From the data (Table V), it is evident that citrate inhibits the direct sialylation activity of all the enzymes mentioned above. However, both the synthesis of CMP-[9-^3H]NeuAc from 5′-CMP as well as the synthesis of [9-^3H]NeuAcα2,3D-Fucβ1,3 GalNAcα-O-Bn using the newly formed CMP-[9-^3H]NeuAc through reverse sialylation of ST3Gal-II was not inhibited by citrate.
The effect of 5′-nucleotides on forward sialylation (FIG. 5a) and reverse sialylation (FIG. 5b) were examined. […] The overall formation of [9-^3H]NeuAcα2,3D-Fucβ1,3 GalNAcα-O-Bn by the two-step reverse sialylation process, however, was inhibited by 5′-CDP and this is consistent with the finding that 5′-CDP inhibits forward sialylation in the second step.

SMILES | Effect on forward sialylation activity of ST3Gal-III
Nc1ccn([C@@H]2O[C@H](COP(=O)(O)OP(=O)(O)O)[C@@H](O)[C@H]2O)c(=O)n1 [5′-CDP] | inhibited
Nc1ccn([C@@H]2O[C@H](COP(=O)(O)O)[C@@H](O)[C@H]2O)c(=O)n1 [5′-CMP, Cytidine 5′-monophosphate] | inhibited
